Reference: PMC10545747, “Development of cyclopeptide inhibitors of cGAS targeting protein-DNA interaction and phase separation” (Nature Communications, 2023)
Where “and” joins values, the source holds several entries; their conditions need not be identical. Identical values can stand only once. Square brackets hold non-standard residues; d marks the D form. Peptide text beside a SMILES is read from it.

Experiments:
[1] = test system: Jurkat cells; test: Flow cytometry of apoptosis, Annexin V and PI staining; format: cell-based, human; conditions: XQ2B +
Protocol: Cell death was measured by Annexin V-FITC/PI Apoptosis Kit (Elabscience) according to the manufacturer’s instructions. Data were acquired on an Attune NxT (ThermoFisher) flow cytometer and analyzed in FlowJo.
Supplementary Fig. 8. XQ2B inhibits cGAS induced autophagy and cell death. (a) L929 cells were pretreated […]
measured by CCK8 assay. p = 0.0022. (c, d) Jurkat cells were treated with DMSO or XQ2B (5 μM), followed by stimulation with ISD (2ug/ml) for 4 h. Flow cytometric analysis of apoptosis assessed by Annexin V and PI staining.
Analysis strategy shown was used to determine the Annexin V+ or PI+ population (c). Numbers in quadrants present […]
percentages (d). p = 0.0006. […]
by HSV-1 infection for indicated titer and periods. Induction of HSV-1(UL5) mRNA was measured by qPCR. p = 0.0018 (1×10^4 pfu); p < 0.0001 (2×10^4 pfu). Data are representative of three independent experiments with similar results in (a), or three independent experiments in (b, d, e). (Data are presented as mean ± SD, n = 3 independent […]
are provided as a Source Data file.

[2] = test system: L929 cells; test: HSV-1 cytopathogenic effect, crystal violet staining; format: cell-based, mouse; conditions: 10 μM
Protocol: L929 cells were seeded into 12-well plates at a density of 5 × 10^5 cells per well, and living cells were stained with crystal violet staining solution (Beyotime Biotechnology) according to the manufacturer’s instructions.

[3] = biological target: T1, full-length human cGAS (hcGAS-FL) (Homo sapiens, UniProt Q8N884); test: Surface plasmon resonance (SPR); format: binding
T1 construct: The gene encoding full-length human cGAS (hcGAS-FL); 6xHis-SUMO (N, cleaved yes); made in house; host or cells: Escherichia coli BL21 (DE3)
T1 sequence (Q8N884 whole entry): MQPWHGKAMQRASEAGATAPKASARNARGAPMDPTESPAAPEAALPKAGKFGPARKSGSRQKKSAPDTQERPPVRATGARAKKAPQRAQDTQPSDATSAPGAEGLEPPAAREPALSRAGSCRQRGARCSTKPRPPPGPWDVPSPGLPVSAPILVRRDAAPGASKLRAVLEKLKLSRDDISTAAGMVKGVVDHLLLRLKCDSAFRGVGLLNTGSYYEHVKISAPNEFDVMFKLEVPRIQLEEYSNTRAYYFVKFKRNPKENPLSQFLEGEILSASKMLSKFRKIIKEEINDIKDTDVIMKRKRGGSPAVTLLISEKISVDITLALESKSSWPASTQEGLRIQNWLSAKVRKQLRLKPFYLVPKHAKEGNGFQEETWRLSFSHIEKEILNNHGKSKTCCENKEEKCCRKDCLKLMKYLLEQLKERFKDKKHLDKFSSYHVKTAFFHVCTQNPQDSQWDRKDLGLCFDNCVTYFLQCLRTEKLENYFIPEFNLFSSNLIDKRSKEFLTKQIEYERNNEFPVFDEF
Protocol: (§1) All SPR binding studies were performed with a Biacore 8 K instrument (GE Healthcare Life Sciences). hcGAS-FL / hcGAS-ΔN (1 mg mL^−1) was immobilized in a CM5 chip by EDC/NHS method. The tested peptide was diluted with running buffer (20 mM HEPES, pH 7.5, 125 mM KCl,10 mM MgCl2). All the samples contained the same concentration of DMSO (0.5%). The tested peptide was injected at a flow rate of 30 μL min^−1 for 200 s of association, followed by 200 s of disassociation at 25 °C. The final graphs were obtained by subtracting blank sensorgrams. The data were analyzed with Biacore Insight Evaluation software.

[4] = biological target: T2, truncated cGAS (hcGAS-ΔN, residues 147–522) (Homo sapiens, UniProt Q8N884); test: Surface plasmon resonance (SPR); format: binding
T2 construct: N-terminally truncated human cGAS (hcGAS-ΔN, residues 147–522); 6xHis-SUMO (N, cleaved yes); made in house; host or cells: Escherichia coli BL21 (DE3)
T2 sequence (Q8N884 147-522, stated change not applied): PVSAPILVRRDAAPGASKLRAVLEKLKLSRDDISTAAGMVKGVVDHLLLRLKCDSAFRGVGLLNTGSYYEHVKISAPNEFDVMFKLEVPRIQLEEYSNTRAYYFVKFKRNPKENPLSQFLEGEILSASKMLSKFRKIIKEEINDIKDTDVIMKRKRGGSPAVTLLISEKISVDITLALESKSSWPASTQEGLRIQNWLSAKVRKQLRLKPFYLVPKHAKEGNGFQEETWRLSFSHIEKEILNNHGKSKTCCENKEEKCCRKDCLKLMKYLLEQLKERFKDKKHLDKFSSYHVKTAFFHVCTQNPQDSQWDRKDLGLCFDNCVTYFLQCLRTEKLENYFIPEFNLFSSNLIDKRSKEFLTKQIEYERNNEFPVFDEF
Protocol: as §1

[5] = test system: cGAS-knockout Hela cells reconstituted with EGFP-hcGAS-FL; test: Live-cell imaging of cGAS-DNA puncta; format: cell-based, human; conditions: 10 μM, 4 h
Protocol: cGAS-knockout Hela cells reconstituted with EGFP-tagged full-length human cGAS (EGFP-hcGAS-FL) were obtained by transfecting pEGFP-C2-hcGAS-FL recombinant plasmid, and were seeded into 20-mm glass-bottom cell culture dish (NEST). Cell culture media was replaced with fresh medium for 1 h, then cells were stimulated by transfection of ISD by lipofectamine 2000 (Invitrogen) after DMSO or XQ2 (10 μM) treatment for the indicated time. The cells were rinsed three times with PBS, and live-cell imaging was performed by using Nikon A1R+ confocal microscope with a 40× oil objective, Nikon A1 camera, and X-Cite 120LED laser. Images were analyzed by FIJI software.

[6] = test system: HSV-1-infected THP1 cells; test: HSV-1 cytopathogenic effect, CCK-8 viability; format: cell-based, human; conditions: for cell viability, CCK-8, Fig. 5e: XQ2 10 μM
Protocol: Cell viability was measured by cell counting kit-8 (TargetMol) according to the manufacturer’s instructions.

[7] = test system: Hela cells; test: Immunofluorescence of IRF3 and p-IRF3 after HSV-1; format: cell-based, human
Protocol: Hela cells were treated as described for the indicated time and then fixed with 4% paraformaldehyde for 25 min, permeabilized with 0.25% Triton X-100 for 10 min, and blocked in 1% BSA for 1 h at 37 °C. Then, cells were incubated with indicated primary antibodies overnight at 4 °C, and followed by incubating with donkey anti-rabbit IgG Alexa Fluor 488-labeled secondary antibodies (Abcam, Cat# ab150073, 1:200) for 1 h at 37 °C. The nuclei were counterstained with DAPI (Sigma-Aldrich) before the images were acquired using a Nikon A1R+ confocal microscope.

[8] = test system: murine fibroblast L929 cells; test: qPCR of Ifnb1/Cxcl10 mRNA in L929 cells (ISD or HSV-1); format: cell-based, mouse; set-up: key to Ifnb1 mRNA (Fig. S2c) / Cxcl10 mRNA (Fig. S2c) / Ifnb1 mRNA (Fig. S2d) / Cxcl10 mRNA (Fig. S2d): mRNA level normalized to GAPDH (relative expression)
Protocol: The indicated cells were stimulated with either ISD (Sangon Biotech), HSV-1 (Provided by Dr. Zhengfan Jiang), HSV60mer (Sangon Biotech), SATE-cddA[70], 2’3’-cGAMP (Invivogen, Cat# tlrl-nacga23-1), ADU-S100 (MedChemExpress, Cat# HY-12885A) or Poly(I:C) (Invivogen, Cat# tlrl-pic) after XQ2 or XQ2B treatment. Total RNA was isolated from indicated cells that incubated with the drugs for indicated time or mice tissues by using NucleoZOL reagent (MACHEREY-NAGEL) according to the manufacturer’s instructions. The quantifications of mRNA levels were carried out by real-time PCR using a PerfectStart® Uni RT&qPCR Kit (TransGen Biotech) on the QuantStudio 5 qPCR machine (Applied Biosystems). Samples were carried out in triplicate and the target CT values were normalized to GAPDH CT values. Primers of qPCR used in this study can be found in Supplementary Table S2. […]
(c) L929, p = 0.0005 (Ifnb1),
BMDMs, p = 0.0001 (Ifnb1), p < 0.0001 (Cxcl10).
representative of three independent experiments in (a-g). (Data are presented as mean ± SD, n = 3 independent
Source data are provided as a Source Data file.

With `CC(C)C[C@@H]1NC(=O)[C@H](CCCNC(=N)N)NC(=O)[C@H](C(C)C)NC(=O)[C@@H]2CCCN2C(=O)[C@@H](Cc2ccccc2)NC(=O)[C@H](CC(C)C)NC(=O)[C@H](CCCNC(=N)N)NC(=O)[C@H]([C@@H](C)O)NC(=O)[C@H](C)NC(=O)[C@@H](Cc2ccccc2)NC1=O` [XQ2B] (cyclo([dF]ATRL[dF]PVRL)) the “Induced cell death(%) (Fig. S8d)” value ([1]; ISD +) was 18.8% and 19.1% and 18.5% and the “Induced cell death(%) (Fig. S8d)” value ([1]; ISD -) was 3.9% and 3.8%.
For `CC(C)C[C@@H]1NC(=O)[C@H](CCCNC(=N)N)NC(=O)[C@H](C(C)C)NC(=O)[C@@H]2CCCN2C(=O)[C@@H](Cc2ccccc2)NC(=O)[C@H](CC(C)C)NC(=O)[C@H](CCCNC(=N)N)NC(=O)[C@H](C(C)C)NC(=O)[C@H](C)NC(=O)[C@@H](Cc2ccccc2)NC1=O` [XQ2, Cyclo (LfAVRLfPVR)] (cyclo(L[dF]AVRL[dF]PVR)), the “HSV-1-induced cytopathogenic effect in L929 cells” value [2] was “promotion of XQ2 on HSV-1-induced cytopathogenic effect in mouse fibroblast L929 cells”, the “Response (RU), SPR, Fig. 3a” value ([3]; XQ2 2.5 μM) was 57.4165 RU and the “Response (RU), SPR, Fig. 3a” value ([3]; XQ2 5 μM) was 140.669 RU. For the same compound, the “Response (RU), SPR, Fig. 3a” value ([3]; XQ2 10 μM) was 252.736 RU, the Kd ([3]; hcGAS-FL, one-to-one binding model, ± 95% CI) was 35.9 µM and ~35 µM and the “Response (RU), SPR, Fig. S4b” value ([4]; XQ2 2.5 μM) was 32.0968 RU. For the same compound, the “Response (RU), SPR, Fig. S4b” value ([4]; XQ2 5 μM) was 115.953 RU, the “Response (RU), SPR, Fig. S4b” value ([4]; XQ2 10 μM) was 275.186 RU and the Kd ([4]; hcGAS-ΔN, Fig. S4b) was 86.5 ± 76.2 µM. For the same compound, the “puncta formation of EGFP-cGAS with ISD” value [5] was “markedly inhibited the puncta formation of EGFP-cGAS with ISD”, the “HSV-1 cytopathogenic effect in THP1 cells” value ([6]; 10 μM) was “HSV-1 produced marked cytopathogenic effect (CPE) in THP1 cells in the presence of XQ2” and the “cell viability, CCK-8, Fig. 5e” value ([6]; Ctl) was 102.857 and 110.714 and 112.321. For the same compound, the “cell viability, CCK-8, Fig. 5e” value ([6]; HSV-1 1×10^4 pfu) was 101.071 and 114.286 and 103.571, the “cell viability, CCK-8, Fig. 5e” value ([6]; HSV-1 1×10^5 pfu) was 37.5 and 43.3929 and 38.0357 and the “cell viability, CCK-8, Fig. 5e” value ([6]; HSV-1 2×10^4 pfu) was 57.3214 and 52.5 and 50.7143. The “cell viability, CCK-8, Fig. 5e” value ([6]; HSV-1 5×10^4 pfu) was 52.8571 and 47.6786 and 46.7857, the “quantification of cells with nuclear IRF3, Fig. 2f” value ([7]; HSV-1 6 h, 10 μM) was 5.1642 and 6.6102 and 7.0558 and the “quantification of cells with p-IRF3, Fig. 2g” value ([7]; HSV-1 6 h, 10 μM) was 0.5674 and 0.8706 and 1.039. The “nuclear translocation and phosphorylation of IRF-3, immunofluorescence” value ([7]; HSV-1, 10 μM) was “significantly inhibited the nuclear translocation and phosphorylation of IRF-3 triggered by HSV-1”, the “Ifnb1 and Cxcl10 expression induced by ISD and HSV-1” value ([8]; L929, 10 μM) was “significantly inhibited the expression of Ifnb1 and its downstream gene Cxcl10” and the “Cxcl10 mRNA (Fig. S2d)” value ([8]; L929, HSV-1+XQ2) was 14.7732 and 16.7433 and 18.5165. The “Ifnb1 mRNA (Fig. S2d)” value ([8]; L929, HSV-1+XQ2) was 2.433 and 2.873 and 2.57, the “Cxcl10 mRNA (Fig. S2c)” value ([8]; L929, ISD+XQ2) was 490.131 and 497.538 and 429.114 and the “Ifnb1 mRNA (Fig. S2c)” value ([8]; L929, ISD+XQ2) was 47.632 and 43.4073 and 39.6029. For the same compound, the “Cxcl10 mRNA (Fig. S2c)” value ([8]; L929, XQ2 alone) was 1.1537 and 1.297 and 1.725, the “Cxcl10 mRNA (Fig. S2d)” value ([8]; L929, XQ2 alone) was 1.1537 and 1.297 and 1.725 and the “Ifnb1 mRNA (Fig. S2c)” value ([8]; L929, XQ2 alone) was 1.659 and 1.773 and 1.653. The “Ifnb1 mRNA (Fig. S2d)” value ([8]; L929, XQ2 alone) was 1.659 and 1.773 and 1.653.
